The values that follow come from patent US20110064661A1, “NON-RADIOACTIVE PHOSPHOLIPID COMPOUNDS, COMPOSITIONS, AND METHODS OF USE” (priority 2009, published 2011).

Experiment [1] deals with A549 cells. Put plainly: Uptake and Retention Assay of 125I-CLR1404. The settings on record: 24 hours, 0.588-2.156 μM, serum free media. Type of experiment: cell-based, human. How it is done:
The Uptake and Retention Assay was preformed as described previously. Briefly, A549 human NSCLC cells were plated at a density of 150,000 cells/ml in 6-well plates.
Cells were then allowed to adhere overnight. All plates were then treated with the indicated mass of either ^125I-CLR1404 with or without ^127I-CLR1401 as indicated by the experimental parameters.
Cells were incubated in the presence of drug for 24 hrs prior to collection. At 24 hrs post treatment, the media was removed and the cells were washed once with 1 ml of ice cold 1×PBS+1% BSA. The cells were then removed from the plate by trypsinization with 1 ml of 1× Trypsin 1×PBS solution and split into 2 samples of 500 μl each. Both sets of sample were pelleted by centrifugation for 30 seconds at 2000×g at room temperature. The supernatant was removed and discarded.
One pellet for each sample set was resuspended in 200 μl of 1×PBS (Tube 1, Sample 1), and the other pellet was resuspened in 100% EtOH (Tube 2, Sample 1). A 100 μl sample from Tube 1 was taken for evaluation of DNA content in order to determine cell number (data was generated using absorbance at 260 nm in a microplate reader). A 10 μl sample from Tube 2 was taken for evaluation of radioactivity content using a gamma counter. […] All treatments were preformed in Serum Free media. […]

Experiment [2] has as its system active Akt (pAkt, S473). Put plainly: Inhibition of Akt activation (pAkt Ser473 sandwich ELISA) in A549 cells. It is filed as cell-based. The settings on record: Homo sapiens. The method, then:
A549 cells, obtained from American Type Culture Collection (ATCC), are a human non-small cell lung cancer cell line. A549 cells have wild-type functional PTEN.
(§1) A549 and PC-3 cells were plated at a density of 200,000 cells per ml.
(§2) All treatments were preformed in triplicate.
(§3) A549 and PC-3 cells are treated with ^127I-CLR1401 for 24 hours. • 0, 3, 5, 10 μM of ^127I-CLR1401 • Protein was isolated from treated cells. • The level of activated Akt was determined by examining the phosphorylated (active) form at Ser473 by enzyme linked immunosorbent assay (ELISA). • PathScan Phospho-Akt1 (Ser473) Sandwich ELISA Kit (Cell Signaling #7160). • ELISA controls: • Negative Control: A549 and PC-3 cells treated with 50 μM LY294,002 for 24 hrs. LY294,002 is a specific cell permeable phosphatidylinositol 3-kinase (PI3K) inhibitor that inhibits the activation of Akt by affecting the amount of phosphatidylinositol(3,4,5) trisphosphate produced by PI3K. • Positive Control: A549 and PC-3 cells stimulated with 10 μg/ml Insulin for 24 hrs. • Negative Control: A549 in serum free media. • 1) The ELISA was preformed per the manufacturer's instructions. Briefly, 100 μg of protein from the cell lysates were incubated in the pre-coated 96-well plate overnight at 4° C. The wells were then washed 4 times with 1XWash Buffer (also provided). Then incubated with the primary Akt antibody for 2 hours at 37° C. with 5% CO2 in air. After the primary incubation the plate was then washed 4 times with 1XWash Buffer and incubated with the HRP-linked secondary antibody for 1 hour at 37° C. with 5% CO2 in air. The plate was then washed 4 times with 1× Wash Buffer and developed using the TMB substrate provided. TMB substrate (tetramethylbenzidine) is a colormetric substrate used in the ELISA assay. TMB (3,3″,5,5″-tetramethylbenzidine) is a chromogen that yields a blue color when oxidized with hydrogen peroxide (catalyzed by HRP) with major absorbances at 370 nm and 652 nm. The color then changes to yellow with the addition of sulfuric or phosphoric acid with maximum absorbance at 450 nm. it is used for the detection of target proteins that have been bound to an antibody that contains a Horseradish Peroxidase tag. • After the 10 minute incubation at 37° C. the reaction was stopped by the addition of stop buffer (also provided). The absorbance was then measured at 450 nm using a Synergy HT microplate reader (BioTek). Data are reported as absorbance at 450 nm.

Experiment [3] relates to A549 cells. Put plainly: Cell growth inhibition by MTT assay. Type of experiment: cell-based, human. How it is done:
2. Cell Growth Inhibition by ^127I-CLR1401. • 1) Growth inhibition induced by ^127I-CLR1401 was determined by MTT(3-(4,5-dimethylthiazol-2-yl)-2,5-diphenyl […] bromide) assay. MTT is a pale yellow substrate that is cleaved by living cells to yield a dark blue formazan product.
Briefly, A549 cells were plated at a density of 200,000 cells per well in a six well plate and allowed to adhere overnight.
The cells were then treated with varying concentrations of ^127I-CLR1401 (0.0078, 0.392, 0.784, 1.568, 3.137, 4.705, 7.84, 39.2, 78.4 μM) in triplicate and then collected for the MTT assay at the indicated time points. Cells were then incubated with 0.5 mg/ml MTT in 1×PBS for 3 hours at 37° C. with 5% CO2 in air.
Absorbance was measured at 540 nm using a Synergy HT microplate reader. The absorbance value at 540 nm is directly proportional to the number of viable cells present.
Background: Tetrazolium dyes change colour on reduction, which living cells bring about.

The test system of experiment [4] is active Akt (pAkt, S473). Put plainly: Inhibition of Akt activation (pAkt Ser473 sandwich ELISA) in PC-3 cells. The settings on record: Homo sapiens. Type of experiment: cell-based. How it is done:
PC-3 cells, obtained from American Type Culture Collection (ATCC), are a human prostate carcinoma cell line. PC-3 cells have a homozygous deletion of PTEN.
as §1, §2, §3
(ELISA stands for enzyme-linked immunosorbent assay.)

The mark [5] stands for this setting: 3 μM, 24 hours, read-out: Percent Inhibition of Akt.
The mark [6] stands for this setting: 5 μM, 24 hours, read-out: Percent Inhibition of Akt.
[7] abbreviates: 10 μM, 24 hours, read-out: Percent Inhibition of Akt.

Consider “18-(p-Iodophenyl)octadecyl phosphocholine [^125I-CLR1404]”, for which, in experiment [1], the “uptake and retention of 125I-CLR1404 with increasing mass dose of 125I-CLR1404” value was “distinct increase in the amount of compound taken up and retained”.

In the case of `C[N+](C)(C)CCOP(=O)([O-])OCCCCCCCCCCCCCCCCCCc1ccc(I)cc1` [^127I-CLR1401, 18-(p-Iodophenyl)octadecyl phosphocholine], the IC50 in experiment [2] came to 5.9 µM; in experiment [3] (Homo sapiens, A549 cells, MTT, read-out: 50% inhibitory concentration for cell growth), 4.5 µM; in experiment [4] it was 5 µM. Besides, the inhibition (as a rule, the drop in the measured response relative to a control, in per cent) at 3 µM in experiment [2] (setting [5]) was found to be 26%; in experiment [4] (setting [5]) it was 21%. Further, the inhibition at 5 µM in experiment [2] (setting [6]) came to 42%; in experiment [4] (setting [6]), 61%. The values for the inhibition at 10 µM in experiment [2] (setting [7]) and in experiment [4] (setting [7]) were 85% and 97%, respectively. Besides, the “effect on the growth of A549 cells” value in experiment [3] (low doses, FIG. 5A) is listed as “no significant effect”.
